In the CheMixHub ionic liquid set:

Experiment: xn = mol fraction of the nth substance listed
Details: 100 kPa

CC[NH3+].O=[N+]([O-])[O-] + CC#N
Details | electrical conductivity [S/m] | viscosity [mPa·s]
278 K, x1 = 0.3 | 2.52 | –
288 K, x1 = 0.7 | 2.71 | –
288.08 K, x1 = 0.7 | – | 20.78
288.08 K, x1 = 0.98 | – | 43.7
288.09 K, x1 = 0.3 | – | 3.15
293.09 K, x1 = 0.3 | – | 2.819
298 K, x1 = 0.7 | 3.71 | 14.73
298.1 K, x1 = 0.98 | – | 33.2
298.14 K, x1 = 0.2 | – | 1.406
308 K, x1 = 0.2 | 5.19 | –
308 K, x1 = 0.7 | 4.94 | –
308.09 K, x1 = 0.8 | – | 14.76
308.11 K, x1 = 0.9 | – | 20.7
308.12 K, x1 = 0.6 | – | 7.76
308.14 K, x1 = 0.7 | – | 10.53
308.15 K, x1 = 0.3 | – | 2.292

C[N+](C)(C)CCC[N+]1(C)CCCCC1.N#C[N-]C#N.N#C[N-]C#N + CC#N
Details | viscosity [mPa·s]
288.15 K, x1 = 0.7996 | 2305
293.15 K, x1 = 0.0999 | 3.69
293.15 K, x1 = 1 | 4503
298.15 K, x1 = 0.3001 | 37.7
298.15 K, x1 = 0.5002 | 181
298.15 K, x1 = 1 | 2819
303.15 K, x1 = 0.3998 | 69.5
308.15 K, x1 = 0.0999 | 2.98
308.15 K, x1 = 0.3001 | 26.5
308.15 K, x1 = 0.3998 | 56.5
308.15 K, x1 = 0.5002 | 109
313.15 K, x1 = 0.2001 | 9.24
313.15 K, x1 = 0.8998 | 545
318.15 K, x1 = 0.0999 | 2.68
318.15 K, x1 = 0.2001 | 8.26
318.15 K, x1 = 0.5002 | 70.4
318.15 K, x1 = 0.7001 | 163
318.15 K, x1 = 1 | 618
323.15 K, x1 = 0.3001 | 17.3
323.15 K, x1 = 0.6 | 91.8
323.15 K, x1 = 0.7001 | 130
328.15 K, x1 = 0.2001 | 6.82
328.15 K, x1 = 0.5002 | 48.7
328.15 K, x1 = 0.6 | 74.3
333.15 K, x1 = 0.5002 | 41.6
333.15 K, x1 = 0.8998 | 183

CCCC[P+](CCCC)(CCCC)CCCC.F[B-](F)(F)F + CC#N + C1CCOC1
298.15 K
Details | viscosity [mPa·s]
x1 = 0.0005747, x2 = 0.84 | 0.377
x1 = 0.0006326, x2 = 0.6368 | 0.408
x1 = 0.000709, x2 = 0.369 | 0.437
x1 = 0.0008641, x2 = 0.8398 | 0.381
x1 = 0.0009513, x2 = 0.6366 | 0.412
x1 = 0.001066, x2 = 0.3689 | 0.442
x1 = 0.001153, x2 = 0.8395 | 0.384
x1 = 0.00127, x2 = 0.6364 | 0.416
x1 = 0.001429, x2 = 0.3688 | 0.447
x1 = 0.001442, x2 = 0.8393 | 0.388
x1 = 0.001588, x2 = 0.6362 | 0.42
x1 = 0.001736, x2 = 0.839 | 0.392
x1 = 0.001786, x2 = 0.3686 | 0.451
x1 = 0.001911, x2 = 0.636 | 0.424
x1 = 0.002029, x2 = 0.8388 | 0.396
x1 = 0.002142, x2 = 0.3685 | 0.456
x1 = 0.002229, x2 = 0.6358 | 0.429
x1 = 0.002504, x2 = 0.3684 | 0.461
